Experimental data published in patent US20210085467A1, “SELECTIVE TARGETED RELEASE” (WEST VIRGINIA UNIVERSITY, priority 2018, published 2021).

Legend:
[1] = test system: biofilm infections; assay: Drug levels necessary to treat biofilm infections
[2] = test system: free floating bacteria; assay: Drug levels necessary to treat free floating bacteria; conditions: planktonic bacteria

CN[C@H](CC(C)C)C(=O)N[C@H]1C(=O)N[C@@H](CC(N)=O)C(=O)N[C@H]2C(=O)N[C@H]3C(=O)N[C@H](C(=O)N[C@H](C(=O)O)c4cc(O)cc(O)c4-c4cc3ccc4O)[C@H](O)c3ccc(c(Cl)c3)Oc3cc2cc(c3O[C@@H]2O[C@H](CO)[C@@H](O)[C@H](O)[C@H]2O[C@H]2C[C@](C)(N)[C@H](O)[C@H](C)O2)Oc2ccc(cc2Cl)[C@H]1O [vancomycin]
drug levels necessary to treat biofilm infections [1]: 10 to 100 µg/mL | drug levels necessary to treat free floating bacteria [2]: 1 to 10 µg/mL
